In patent US8334248B2, “Aqueous solution of olanexidine, method of preparing the aqueous solution, and disinfectant” (Otsuka Pharmaceutical Co., Ltd., priority 2003, dated 2012):

Experiment: Solubility in water
Format: physicochemical
Description: Olanexidine has very poor solubility in water, and hitherto known salts of olanexidine are also poorly soluble in water. […] Consequently, sufficient bactericidal activity cannot be expected of an aqueous solution merely having olanexidine dissolved therein, and moreover, depending on the conditions the olanexidine may precipitate out.

SMILES	solubility in water relative to olanexidine hydrochloride (compared with less than 0.05% (W/V) of the hydrochloride)	solubility in water (at 0° C.)
CCCCCCCCNC(=N)NC(=N)NCc1ccc(Cl)c(Cl)c1 [free olanexidine, 1-(3,4-dichlorobenzyl)-5-octylbiguanide]	a further order of magnitude less than this	–
CCCCCCCCN=C(N)NC(N)=NCc1ccc(Cl)c(Cl)c1.Cl [olanexidine hydrochloride]	–	less than 0.05 % (W/V)
